According to patent publication US7968600B2, “Medicament for preventive and therapeutic treatment of physical dysfunction caused by nerve damage” (Nanoegg Research Laboratories, Inc., priority 2007, dated 2011):

Columns and labels:
regenerated nerves = conditions: 50 μL (10 nM RA); cited from earlier work
[1] = test system: traumatic spinal cord injury model rats; experiment: Treadmill test (compulsory walking) in traumatic spinal cord injury model rats; format: in vivo, Wistar rats; conditions: for Number of contact to back end wall: 21st day from the injury, treadmill 8 m/min for 5 min, **p < 0.01; for number of the contact with the back end wall as compared to the control group / walking period as compared to the control group: treadmill test
Experimental: (§1) 23 of 9 weeks old female Wistar rats had on their spinal cords of the thoracic vertebrae injured under anesthesia by loading a weight of 10 g dropped from a height of 2.5 cm to prepare traumatic spinal cord injury model rats with impaired motor function of the hind limb. The 23 rats were divided into the following 3 groups: • 1st Group: 8 rats were administered orally with 3 mg/kg of 4-[(5,6,7,8-tetrahydro-5,5,8,8-tetramethyl-2-naphthalenyl)carbamoyl]benzoic acid once before the injury and then once a day. • 2nd Group: 8 rats were administered with 0.15 mg/kg of 4-[(5,6,7,8-tetrahydro-5,5,8,8-tetramethyl-2-naphthalenyl)carbamoyl]benzoic acid directly to the injured site immediately after the injury, and then administered subcutaneously once a day near the injured area. • 3rd Group: 7 rats were administered orally with 1 ml/kg of 0.5% carboxymethyl cellulose (CMC) solution as a control group.
(§2) Administration was performed every day for 21 days after the injury for each group. The motor function of the hind limb was evaluated according to the Basso-Beattie-Bresnahan (BBB) score every day up to 21st day, and 28th day after the injury. For animals with BBB scores being 10 or more, evaluation of the motor function was performed by using a treadmill (manufactured by Muromachi Kikai Co., Ltd) on the 21st and the 28th day. The treadmill tests were performed for 5 minutes with velocity of the treadmill walking surface being kept at 8 m/min. In the test, a period of time during which the animal walked with four legs was measured, and in addition, total number of the contact of the animal with the end wall of the walking surface due to the stop walking of the animal was measured, thereby motor function was evaluated.

[2] = test system: traumatic spinal cord injury model rats; experiment: Basso-Beattie-Bresnahan (BBB) score, motor function of the hind limb in traumatic spinal cord injury model rats; format: in vivo, Wistar rats; conditions: for BBB score: 21st day from the injury; for BBB scores compared to the control group (FIG. 1): time course after the injury
Experimental: as §1, §2

For `CC1=C(/C=C/C(C)=C/C=C/C(C)=C/C(=O)O)C(C)(C)CCC1` [Vitamin A acid, all-trans retinoic acid], the “increase of regenerated nerves” value (regenerated nerves) is given as 30% and the “recovery in nerve and motor functions” value (regenerated nerves) is given as “no recovery”.
In the case of `CC1(C)CCC(C)(C)c2cc(NC(=O)c3ccc(C(=O)O)cc3)ccc21` [4-[(5,6,7,8-tetrahydro-5,5,8,8-tetramethyl-2-naphthalenyl)carbamoyl]benzoic acid], the “Number of contact to back end wall” value ([1]; oral 3.0 mg/kg once a day) is reported as 16.0 ± 8.3(**), the “number of the contact with the back end wall as compared to the control group” value ([1]; oral administration) is reported as “remarkable decrease” and the “walking period as compared to the control group” value ([1]; oral administration) is reported as “prolongation of the walking period”. For the same molecule, the “Number of contact to back end wall” value ([1]; subcutaneous 0.15 mg/kg once a day) was 13.4 ± 6.7(**), the “number of the contact with the back end wall as compared to the control group” value ([1]; subcutaneous administration) was “remarkable decrease” and the “walking period as compared to the control group” value ([1]; subcutaneous administration) was “prolongation of the walking period”. For the same molecule, the BBB score ([2]; oral 3.0 mg/kg once a day) was 11.43 ± 3.80 ^, the “BBB scores compared to the control group (FIG. 1)” value ([2]; oral 3 mg/kg) was “significantly improved BBB scores” and the BBB score ([2]; subcutaneous 0.15 mg/kg once a day, *p < 0.05) was 12.71 ± 2.28(*). For the same molecule, the “BBB scores compared to the control group (FIG. 1)” value ([2]; subcutaneous 0.15 mg/kg) was “significantly improved BBB scores”.
